# Experimental data as given in BindingDB's records for patent US20240034727 (Stingray Therapeutics, 2024).
# Target: T1, Ectonucleotide pyrophosphatase/phosphodiesterase family member 1 (Homo sapiens, UniProt P22413)
# T1 sequence (P22413 whole entry): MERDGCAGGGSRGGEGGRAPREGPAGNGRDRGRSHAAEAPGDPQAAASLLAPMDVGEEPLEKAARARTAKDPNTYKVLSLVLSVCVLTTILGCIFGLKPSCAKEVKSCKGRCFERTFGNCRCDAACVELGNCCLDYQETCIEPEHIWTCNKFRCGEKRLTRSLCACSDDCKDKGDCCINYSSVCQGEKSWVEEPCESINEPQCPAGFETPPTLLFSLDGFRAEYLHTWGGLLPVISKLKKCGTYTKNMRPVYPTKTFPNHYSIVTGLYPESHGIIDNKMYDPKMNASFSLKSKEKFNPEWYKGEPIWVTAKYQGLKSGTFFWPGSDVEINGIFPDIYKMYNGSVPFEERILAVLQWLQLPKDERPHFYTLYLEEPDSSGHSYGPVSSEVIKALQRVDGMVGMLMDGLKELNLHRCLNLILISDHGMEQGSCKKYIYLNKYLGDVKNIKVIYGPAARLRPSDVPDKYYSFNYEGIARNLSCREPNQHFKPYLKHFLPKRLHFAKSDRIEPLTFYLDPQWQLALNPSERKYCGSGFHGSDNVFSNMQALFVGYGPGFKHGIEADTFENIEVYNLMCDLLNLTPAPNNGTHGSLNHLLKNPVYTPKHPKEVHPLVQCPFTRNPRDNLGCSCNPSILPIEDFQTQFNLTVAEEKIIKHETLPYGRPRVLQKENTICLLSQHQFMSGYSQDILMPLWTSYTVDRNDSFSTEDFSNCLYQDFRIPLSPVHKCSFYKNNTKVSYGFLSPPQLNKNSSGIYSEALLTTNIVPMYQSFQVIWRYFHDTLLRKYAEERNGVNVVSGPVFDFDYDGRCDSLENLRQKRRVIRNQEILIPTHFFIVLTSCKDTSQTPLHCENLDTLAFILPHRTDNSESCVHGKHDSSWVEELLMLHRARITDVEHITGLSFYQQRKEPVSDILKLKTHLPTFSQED
# Test: ENPP1 Inhibition Assay
# Experimental: Assay Buffer: 1 mM CaCl2), 0.2 mM ZnCl2, 50 mM Tris, pH 9.0. Substrate: 8 mM Thymidine 5′-monophosphate p-nitrophenol ester sodium salt (Sigma Cat #T4510). Enzyme: 5 ng/L Recombinant Human ENPP-1 Protein (R&D Cat #6136-EN-010) in DMSO in 96-well clear assay plates. An eight point serial dilution of drugs was prepared in 10 in assay buffer with the final assay concentrations starting at 10 μM, 3 μM, 1 μM, 0.3 μM and 0 μM. A dilution of DMSO was included as a control. The assay plate was set up as follows with each well in duplicate: 81 μL assay buffer+10 μL ENPP1 inhibitor or DMSO+5 μL Substrate+4 μL Enzyme. Both the enzyme and substrate was added to opposite sides of the well to ensure that there was no interaction until all wells had both components. The plate was then centrifuged gently for 10 seconds, followed by an incubation at 37 C. for 45 minutes. The reaction was quantified by measuring absorbance at 405 nm using the Envision. IC50 values are determined using GraphPad Prism 5 software. The data were entered as an X-Y plot into the software as percent inhibition for each concentration of the drug. The concentration values of the drug were log transformed and the nonlinear regression was carried out using the sigmoidal dose-response (variable slope) option within the GraphPad software to model the data and calculate IC50 values. […]
row,IC50 [µM],Compound
1,> 10,"O=C(CSc1nc(C(=O)O)c[nH]1)NCc1cccc(Cl)c1 [US20240034727, Compound I-21]"
2,< 0.2,"COc1ccc(NC(=O)CSc2nc(C(=O)O)c[nH]2)cc1Cl [US20240034727, Compound I-35]"
